From patent publication US20250230193A1, “CYCLIC COMPOUND HAVING SELECTIVE KRAS INHIBITORY EFFECT ON HRAS AND NRAS” (CHUGAI SEIYAKU KABUSHIKI KAISHA, priority 2022, published 2025)
*1 amine or outer side, *2 acyl side, *3 side chain or, on linkers, in order; H or OH if unused. Where a SMILES comes first, the peptide text is derived from it. Bridges are numbered along the chain shown (N, C = ends). [ ]: non-standard residue; d: D form. The star is where a group is joined. hPhe(3-Cl-4-CF3) = N[C@@H](CCc1ccc(C(F)(F)F)c(Cl)c1)C(=O)O; NPrPhe(4-CF3) = CCCN[C@@H](Cc1ccc(C(F)(F)F)cc1)C(=O)O; NEtAsp = CCN([C@@H](CC(=O)[*:3])C(=O)[*:2])[*:1]; NMeGly(cPent) = CN[C@H](C(=O)O)C1CCCC1; NMeD = CN[C@@H](CC(=O)O)C(=O)O; NMeL = CN[C@@H](CC(C)C)C(=O)O; Morpholide = C1CN(*)CCO1; Ac5c = NC1(C(=O)O)CCCC1; Sar = CNCC(=O)O

Legend:
[1] = target: GDP-bound NRAS wild-type protein (Homo sapiens, UniProt P01111); assay: Binding to NRAS by surface plasmon resonance (SPR), Single Cycle Kinetics; conditions: KD ratio, GDP-bound NRAS wild-type vs GDP-bound KRAS wild-type, SPR
[2] = target: GDP-bound HRAS wild-type protein (Homo sapiens, UniProt P01112); assay: Binding to HRAS by surface plasmon resonance (SPR), Single Cycle Kinetics; conditions: KD ratio, GDP-bound HRAS wild-type vs GDP-bound KRAS wild-type, SPR
Chain of GDP-bound HRAS wild-type protein (P01112 whole entry): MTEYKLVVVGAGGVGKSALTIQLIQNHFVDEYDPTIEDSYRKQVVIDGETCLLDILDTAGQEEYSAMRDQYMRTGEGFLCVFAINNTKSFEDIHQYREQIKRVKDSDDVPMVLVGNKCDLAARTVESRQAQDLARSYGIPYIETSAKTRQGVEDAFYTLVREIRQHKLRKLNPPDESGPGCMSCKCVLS

Chain of GDP-bound NRAS wild-type protein (P01111 whole entry): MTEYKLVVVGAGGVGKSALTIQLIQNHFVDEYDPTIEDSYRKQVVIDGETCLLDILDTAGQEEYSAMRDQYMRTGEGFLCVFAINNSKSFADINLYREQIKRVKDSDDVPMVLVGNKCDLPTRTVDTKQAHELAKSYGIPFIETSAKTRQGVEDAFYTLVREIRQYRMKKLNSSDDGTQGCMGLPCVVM

Structure (SMILES) | NRAS/KRAS (ratio of KD value for NRAS to KD value for KRAS) [1] | HRAS/KRAS (ratio of KD value for HRAS to KD value for KRAS) [2]
CCCN1C(=O)CN(C)C(=O)CNC(=O)[C@H]([C@@H](C)CC)NC(=O)[C@H](CC(C)C)N(C)C(=O)C[C@@H](C(=O)N2CCOCC2)N(CC)C(=O)[C@H](C2CCCC2)N(C)C(=O)C2(CCCC2)NC(=O)[C@@H]2CCCN2C(=O)[C@H](CCc2ccc(C(F)(F)F)c(Cl)c2)NC(=O)CN(C)C(=O)[C@@H]1Cc1ccc(C(F)(F)F)cc1 [PP1970] ([NMeL]IG[Sar][NPrPhe(4-CF3)][Sar][hPhe(3-Cl-4-CF3)]P[Ac5c][NMeGly(cPent)][NEtAsp]-Morpholide; lactam N-11) | B (a compound having 3 or more and less than 10 is denoted as B) | B (a compound having 3 or more and less than 10 is denoted as B)
CCCN1C(=O)CN(C)C(=O)[C@H](C)NC(=O)[C@H]([C@@H](C)CC)NC(=O)[C@H](CC(C)C)N(C)C(=O)C[C@@H](C(=O)N2CCOCC2)N(C)C(=O)[C@H](C2CCCC2)N(C)C(=O)C2(CCCC2)NC(=O)[C@@H]2CCCN2C(=O)[C@H](CCc2ccc(C(F)(F)F)c(Cl)c2)NC(=O)CN(C)C(=O)[C@@H]1Cc1ccc(C(F)(F)F)cc1 [PP1971] ([NMeL]IA[Sar][NPrPhe(4-CF3)][Sar][hPhe(3-Cl-4-CF3)]P[Ac5c][NMeGly(cPent)][NMeD]-Morpholide; lactam N-11) | B (a compound having 3 or more and less than 10 is denoted as B) | B (a compound having 3 or more and less than 10 is denoted as B)
CC[C@H](C)[C@@H]1NC(=O)[C@H](CCOC)N(C)C(=O)C[C@@H](C(=O)N(C)CC)N(C)C(=O)[C@H](C2CCCC2)N(C)C(=O)C2(CC(C)(C)C2)NC(=O)[C@@H]2C[C@H](C)CN2C(=O)[C@H](CCc2cc(F)c(C(F)(F)F)c(F)c2)NC(=O)CN(C)C(=O)[C@H](Cc2ccc(C(F)(F)F)cc2)N2CC/C=C\C[C@@H](C2=O)N(C)C(=O)CN(C)C1=O [PP1972] | A (a compound having 10 or more and less than 20 is denoted as A) | A (a compound having 10 or more and less than 20 is denoted as A)
CCCOC[C@H]1C(=O)N[C@@H]([C@@H](C)CC)C(=O)N(C)CC(=O)N(C)[C@H]2C/C=C\CCN(C2=O)[C@@H](Cc2ccc(C(F)(F)F)cc2)C(=O)N(C)CC(=O)N[C@@H](CCc2ccc(C(F)(F)F)c(OC)c2)C(=O)N2C[C@H](OCC)C[C@H]2C(=O)NC2(CC(C)(C)C2)C(=O)N(C)[C@@H](C2CCCC2)C(=O)N(C)[C@H](C(=O)N(C)CC)CC(=O)N1C [PP1973] | A (a compound having 10 or more and less than 20 is denoted as A) | B (a compound having 3 or more and less than 10 is denoted as B)
CCCN(C)C(=O)[C@@H]1CC(=O)N(C)[C@@H](CCOC)C(=O)N[C@@H]([C@@H](C)CC)C(=O)N(C)CC(=O)N(C)[C@H]2C/C=C\CCN(C2=O)[C@@H](Cc2ccc(C(F)(F)F)cc2)C(=O)N(C)CC(=O)N[C@@H](CCc2cc(F)c(C(F)(F)F)c(F)c2)C(=O)N2C[C@@H](C)C[C@H]2C(=O)NC2(CC(C)(C)C2)C(=O)N(C)[C@@H](C2CCCC2)C(=O)N1C [PP1974] | A (a compound having 10 or more and less than 20 is denoted as A) | A (a compound having 10 or more and less than 20 is denoted as A)
CCCN(C)C(=O)[C@@H]1CC(=O)N(C)[C@@H](CCOC)C(=O)N[C@@H]([C@@H](C)CC)C(=O)N(C)CC(=O)N(C)[C@H]2C/C=C\CCN(C2=O)[C@@H](Cc2ccc(C(F)(F)F)cc2)C(=O)N(C)CC(=O)N[C@@H](CCc2ccc(C(F)(F)F)c(OC)c2)C(=O)N2C[C@H](OCC)C[C@H]2C(=O)NC2(CC(C)(C)C2)C(=O)N(C)[C@@H](C2CCCC2)C(=O)N1C [PP1975] | A (a compound having 10 or more and less than 20 is denoted as A) | A (a compound having 10 or more and less than 20 is denoted as A)
CC[C@H](C)[C@@H]1NC(=O)[C@H](C(C)C)N(C)C(=O)C[C@@H](C(=O)N(C)CC)N(C)C(=O)[C@H](C2CCCC2)N(C)C(=O)C2(CC(C)(C)C2)NC(=O)[C@@H]2C[C@H](C)CN2C(=O)[C@H](CCc2cc(F)c(C(F)(F)F)c(F)c2)NC(=O)CN(C)C(=O)[C@H](Cc2ccc(C(F)(F)F)cc2)N2CC/C=C\C[C@@H](C2=O)N(C)C(=O)CN(C)C1=O [PP1976] | AA (a compound having 20 or more is denoted as AA) | A (a compound having 10 or more and less than 20 is denoted as A)
CCO[C@@H]1C[C@H]2C(=O)NC3(CC(C)(C)C3)C(=O)N(C)[C@@H](C3CCCC3)C(=O)N(C)[C@H](C(=O)N(C)CC)CC(=O)N(C)[C@@H](C(C)C)C(=O)N[C@@H]([C@@H](C)CC)C(=O)N(C)CC(=O)N(C)[C@H]3C/C=C\CCN(C3=O)[C@@H](Cc3ccc(C(F)(F)F)cc3)C(=O)N(C)CC(=O)N[C@@H](CCc3ccc(C(F)(F)F)c(OC)c3)C(=O)N2C1 [PP1977] | AA (a compound having 20 or more is denoted as AA) | A (a compound having 10 or more and less than 20 is denoted as A)
CCO[C@@H]1C[C@H]2C(=O)NC3(CC(C)(C)C3)C(=O)N(C)[C@@H](C3CCCC3)C(=O)N(C)[C@H](C(=O)N(C)C)CC(=O)N(C)[C@@H](C(C)C)C(=O)N[C@@H]([C@@H](C)CC)C(=O)N(C)CC(=O)N(C)[C@H]3C/C=C\CCN(C3=O)[C@@H](Cc3ccc(C(F)(F)F)cc3)C(=O)N(C)CC(=O)N[C@@H](CCc3ccc(C(F)(F)F)c(OC)c3)C(=O)N2C1 [PP1979] | AA (a compound having 20 or more is denoted as AA) | A (a compound having 10 or more and less than 20 is denoted as A)
CC[C@H](C)[C@@H]1NC(=O)[C@H](C2CC2)N(C)C(=O)C[C@@H](C(=O)N(C)CC)N(C)C(=O)[C@H](C2CCCC2)N(C)C(=O)C2(CC(C)(C)C2)NC(=O)[C@@H]2C[C@H](C)CN2C(=O)[C@H](CCc2cc(F)c(C(F)(F)F)c(F)c2)NC(=O)CN(C)C(=O)[C@H](Cc2ccc(C(F)(F)F)cc2)N2CC/C=C\C[C@@H](C2=O)N(C)C(=O)CN(C)C1=O [PP1980] | A (a compound having 10 or more and less than 20 is denoted as A) | B (a compound having 3 or more and less than 10 is denoted as B)
CCO[C@@H]1C[C@H]2C(=O)NC3(CC(C)(C)C3)C(=O)N(C)[C@@H](C3CCCC3)C(=O)N(C)[C@H](C(=O)N(C)CC)CC(=O)N(C)[C@@H](C3CC3)C(=O)N[C@@H]([C@@H](C)CC)C(=O)N(C)CC(=O)N(C)[C@H]3C/C=C\CCN(C3=O)[C@@H](Cc3ccc(C(F)(F)F)cc3)C(=O)N(C)CC(=O)N[C@@H](CCc3ccc(C(F)(F)F)c(OC)c3)C(=O)N2C1 [PP1981] | A (a compound having 10 or more and less than 20 is denoted as A) | A (a compound having 10 or more and less than 20 is denoted as A)
CCCN(C)C(=O)[C@@H]1CC(=O)N(C)[C@@H](C2CC2)C(=O)N[C@@H]([C@@H](C)CC)C(=O)N(C)CC(=O)N(C)[C@H]2C/C=C\CCN(C2=O)[C@@H](Cc2ccc(C(F)(F)F)cc2)C(=O)N(C)CC(=O)N[C@@H](CCc2ccc(C(F)(F)F)c(OC)c2)C(=O)N2C[C@H](OCC)C[C@H]2C(=O)NC2(CC(C)(C)C2)C(=O)N(C)[C@@H](C2CCCC2)C(=O)N1C [PP1983] | AA (a compound having 20 or more is denoted as AA) | A (a compound having 10 or more and less than 20 is denoted as A)
CC[C@H](C)[C@@H]1NC(=O)[C@H](C2CCC2)N(C)C(=O)C[C@@H](C(=O)N(C)CC)N(C)C(=O)[C@H](C2CCCC2)N(C)C(=O)C2(CC(C)(C)C2)NC(=O)[C@@H]2C[C@H](C)CN2C(=O)[C@H](CCc2cc(F)c(C(F)(F)F)c(F)c2)NC(=O)CN(C)C(=O)[C@H](Cc2ccc(C(F)(F)F)cc2)N2CC/C=C\C[C@@H](C2=O)N(C)C(=O)CN(C)C1=O [PP1984] | A (a compound having 10 or more and less than 20 is denoted as A) | A (a compound having 10 or more and less than 20 is denoted as A)
CCO[C@@H]1C[C@H]2C(=O)NC3(CC(C)(C)C3)C(=O)N(C)[C@@H](C3CCCC3)C(=O)N(C)[C@H](C(=O)N(C)C)CC(=O)N(C)[C@@H](C3CCC3)C(=O)N[C@@H]([C@@H](C)CC)C(=O)N(C)CC(=O)N(C)[C@H]3C/C=C\CCN(C3=O)[C@@H](Cc3ccc(C(F)(F)F)cc3)C(=O)N(C)CC(=O)N[C@@H](CCc3ccc(C(F)(F)F)c(OC)c3)C(=O)N2C1 [PP1987] | A (a compound having 10 or more and less than 20 is denoted as A) | A (a compound having 10 or more and less than 20 is denoted as A)
CCCN(C)C(=O)[C@@H]1CC(=O)N(C)[C@@H](COCC)C(=O)N[C@@H]([C@@H](C)CC)C(=O)N(C)CC(=O)N(C)[C@H]2C/C=C\CCN(C2=O)[C@@H](Cc2ccc(C(F)(F)F)cc2)C(=O)N(C)CC(=O)N[C@@H](CCc2cc(F)c(C(F)(F)F)c(F)c2)C(=O)N2C[C@H](OCC)C[C@H]2C(=O)NC2(CCC2)C(=O)N(C)[C@@H](C2CCCC2)C(=O)N1C [PP1988] | A (a compound having 10 or more and less than 20 is denoted as A) | A (a compound having 10 or more and less than 20 is denoted as A)
CCCN(C)C(=O)[C@@H]1CC(=O)N(C)[C@@H](CC(F)F)C(=O)N[C@@H]([C@@H](C)CC)C(=O)N(C)CC(=O)N(C)[C@H]2C/C=C\CCN(C2=O)[C@@H](Cc2ccc(C(F)(F)F)cc2)C(=O)N(C)CC(=O)N[C@@H](CCc2ccc(C(F)(F)F)c(OC)c2)C(=O)N2C[C@@H](C)C[C@H]2C(=O)NC2(CC(C)(C)C2)C(=O)N(C)[C@@H](C2CCCC2)C(=O)N1C [PP1989] | A (a compound having 10 or more and less than 20 is denoted as A) | A (a compound having 10 or more and less than 20 is denoted as A)
